# From patent publication US12708620B2, “Prodrugs and medical uses thereof” (priority 2018, dated 2026)
# Experiments:
# [1] = system: MDA-MB-468 tumor xenograft; experiment: breast cancer (TNBC) xenograft model; type: in vivo, BALB/c Nude Mice; conditions: MDA-MB-468 xenograft
# DMS 114 tumor xenograft = experiment: lung cancer (SCLC) xenograft model; type: in vivo, BALB/c Nude Mice; conditions: DMS 114 xenograft; 600 mg/kg IP; hypoxic status confirmed
# Procedure: All animal models were established as xenograft model in BALB/c Nude Mice (6-8 weeks old, 17-23 grams, maintained in standard conditions and diet), following approved IACUC (Institutional Animal Care and Use Committees) protocols. Cpd.11 Ms was formulated using 2% dimethyl sulfoxide (DMSO in water for injection, starting from a Cpd.11 Ms main preparation (100-60 mg/ml in 2% DMSO in water for injection).
# After tumor cell inoculation, the animals were checked daily for morbidity and mortality. Before commencement of treatment all animals were weighed and the tumor volumes were measured using a caliper. The treatments were started when the mean tumor size reached approx. 250 mm^3. […] At the time of routine monitoring, the animals were checked for any effects of tumor growth and treatments on normal behavior such as mobility, visual estimation of food and water consumption, body weight gain/loss (body weights were measured daily during the 5-day treatment and thrice weekly after treatment), eye/hair matting and any other abnormal effect. Death and observed clinical signs were recorded on the basis of the numbers of animals within each subset. […] The surrogate endpoint for survival was calculated and indicated as TVx4 (initial tumor volume times 4). […] All data were analyzed in SPSS (Statistical Product and Service Solutions) version 18.0 (IBM, Armonk, NY, U.S.). […]
compound,measurement,setting,value
"CCN1CCN(C(=O)c2cc(N(CCBr)CCOS(C)(=O)=O)c(S(C)(=O)=O)cc2[N+](=O)[O-])CC1.CS(=O)(=O)O [Cpd.11 Ms, 4-(5-((2-bromoethyl) (2-((methylsulfonyl)oxy)ethyl)amino)-4-(methylsulfonyl)-2-nitrobenzoyl)-1-ethylpiperazin-1-ium methanesulfonate]",Anti-tumor effect,"[1]; 200-800 mg/kg IP, hypoxic status confirmed","Strong impact,"
same,impact on hypoxia by pimonidazole immunohistochemical staining,[1]; 400-800 mg/kg from 1 to 5 consecutive days,clear impact
same,Anti-tumor effect,DMS 114 tumor xenograft,"Clear impact,"
